Experimental findings from ChEMBL document CHEMBL3991601, “The target landscape of clinical kinase drugs” (Science, 2017) are described below.

Structures are written as SMILES. The source made the active and inactive calls. For most assays here, no stated cut-off is given here; in the data, actives have a measured Kd and inactives only a lower limit.

Assay [1] deals with T1, Phosphatidylinositol 5-phosphate 4-kinase type-2 gamma (Homo sapiens, UniProt Q8TBX8).
T1 sequence (Q8TBX8 whole entry): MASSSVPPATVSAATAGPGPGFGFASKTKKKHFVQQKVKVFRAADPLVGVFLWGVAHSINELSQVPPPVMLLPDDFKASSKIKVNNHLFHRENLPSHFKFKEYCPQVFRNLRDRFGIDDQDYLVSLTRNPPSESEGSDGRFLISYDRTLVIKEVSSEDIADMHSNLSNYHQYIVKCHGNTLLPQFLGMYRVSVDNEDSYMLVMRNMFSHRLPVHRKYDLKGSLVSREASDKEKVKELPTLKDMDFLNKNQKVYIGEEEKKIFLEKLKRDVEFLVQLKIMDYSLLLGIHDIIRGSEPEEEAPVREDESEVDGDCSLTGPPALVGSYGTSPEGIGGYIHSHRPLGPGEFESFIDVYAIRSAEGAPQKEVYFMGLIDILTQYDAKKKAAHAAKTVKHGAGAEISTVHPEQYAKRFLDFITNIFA

In assay [2] the target is T2, Peroxisomal acyl-coenzyme A oxidase 1 (Homo sapiens, UniProt Q15067).
T2 sequence (Q15067 whole entry): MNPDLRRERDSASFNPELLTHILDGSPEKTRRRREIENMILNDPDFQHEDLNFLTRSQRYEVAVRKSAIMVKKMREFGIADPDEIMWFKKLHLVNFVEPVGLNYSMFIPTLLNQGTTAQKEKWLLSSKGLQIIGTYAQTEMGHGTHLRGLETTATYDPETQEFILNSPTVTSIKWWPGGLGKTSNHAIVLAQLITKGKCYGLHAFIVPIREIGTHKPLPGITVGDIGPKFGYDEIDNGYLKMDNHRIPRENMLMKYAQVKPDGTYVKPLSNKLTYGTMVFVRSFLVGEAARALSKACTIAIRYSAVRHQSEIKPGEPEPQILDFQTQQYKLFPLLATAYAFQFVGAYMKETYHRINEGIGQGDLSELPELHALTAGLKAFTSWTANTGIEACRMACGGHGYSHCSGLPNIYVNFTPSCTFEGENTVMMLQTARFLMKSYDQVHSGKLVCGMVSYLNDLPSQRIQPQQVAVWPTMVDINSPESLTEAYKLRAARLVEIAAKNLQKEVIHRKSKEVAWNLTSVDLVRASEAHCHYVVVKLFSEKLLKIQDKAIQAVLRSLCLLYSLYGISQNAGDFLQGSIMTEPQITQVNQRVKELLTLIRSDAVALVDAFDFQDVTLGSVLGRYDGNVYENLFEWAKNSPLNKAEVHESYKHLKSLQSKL

Assay [3] concerns the target Ribosomal protein S6 kinase beta-1 (Homo sapiens, UniProt P23443).
The target in assay [4] is T3, Serine/threonine-protein kinase TAO1 (Homo sapiens, UniProt Q7L7X3).
T3 sequence (Q7L7X3 whole entry): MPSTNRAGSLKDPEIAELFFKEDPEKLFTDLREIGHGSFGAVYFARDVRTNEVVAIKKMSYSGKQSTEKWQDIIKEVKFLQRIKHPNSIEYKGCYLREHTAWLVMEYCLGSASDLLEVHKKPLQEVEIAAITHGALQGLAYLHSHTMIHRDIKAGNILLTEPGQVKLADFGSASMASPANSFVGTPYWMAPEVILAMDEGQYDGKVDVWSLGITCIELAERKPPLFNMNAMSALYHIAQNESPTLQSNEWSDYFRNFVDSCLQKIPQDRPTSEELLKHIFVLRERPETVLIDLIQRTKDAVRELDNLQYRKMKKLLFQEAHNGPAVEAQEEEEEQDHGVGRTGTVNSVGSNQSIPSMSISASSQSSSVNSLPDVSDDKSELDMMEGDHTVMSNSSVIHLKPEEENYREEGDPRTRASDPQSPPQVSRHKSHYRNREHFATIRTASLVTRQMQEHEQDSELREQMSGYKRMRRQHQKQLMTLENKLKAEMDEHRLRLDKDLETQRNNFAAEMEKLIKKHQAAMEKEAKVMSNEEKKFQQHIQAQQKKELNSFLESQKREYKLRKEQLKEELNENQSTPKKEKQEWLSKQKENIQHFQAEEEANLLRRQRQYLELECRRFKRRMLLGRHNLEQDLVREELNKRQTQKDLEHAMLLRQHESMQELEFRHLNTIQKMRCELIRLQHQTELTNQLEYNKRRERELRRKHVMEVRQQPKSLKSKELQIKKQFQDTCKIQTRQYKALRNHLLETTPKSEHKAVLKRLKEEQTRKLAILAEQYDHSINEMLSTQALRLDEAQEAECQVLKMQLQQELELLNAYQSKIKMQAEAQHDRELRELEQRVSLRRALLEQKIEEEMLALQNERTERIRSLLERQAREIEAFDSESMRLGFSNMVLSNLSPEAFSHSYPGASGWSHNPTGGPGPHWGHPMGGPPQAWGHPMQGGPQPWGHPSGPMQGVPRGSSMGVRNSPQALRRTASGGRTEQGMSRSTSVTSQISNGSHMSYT

Assay [5] has as its target T4, Interleukin-1 receptor-associated kinase 4 (Homo sapiens, UniProt Q9NWZ3).
T4 sequence (Q9NWZ3 whole entry): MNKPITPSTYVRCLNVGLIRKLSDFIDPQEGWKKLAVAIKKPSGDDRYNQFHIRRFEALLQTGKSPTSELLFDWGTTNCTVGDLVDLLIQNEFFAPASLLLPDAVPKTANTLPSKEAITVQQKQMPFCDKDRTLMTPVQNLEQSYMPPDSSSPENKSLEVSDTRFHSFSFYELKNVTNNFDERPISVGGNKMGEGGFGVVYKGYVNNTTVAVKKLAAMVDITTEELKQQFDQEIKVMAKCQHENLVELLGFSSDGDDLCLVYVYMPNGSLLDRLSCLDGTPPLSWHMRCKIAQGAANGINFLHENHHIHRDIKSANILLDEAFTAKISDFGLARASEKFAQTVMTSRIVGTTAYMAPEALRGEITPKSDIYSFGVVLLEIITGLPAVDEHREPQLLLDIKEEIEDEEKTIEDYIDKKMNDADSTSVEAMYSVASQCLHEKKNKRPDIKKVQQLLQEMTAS

Chain of Ribosomal protein S6 kinase beta-1 (P23443 whole entry): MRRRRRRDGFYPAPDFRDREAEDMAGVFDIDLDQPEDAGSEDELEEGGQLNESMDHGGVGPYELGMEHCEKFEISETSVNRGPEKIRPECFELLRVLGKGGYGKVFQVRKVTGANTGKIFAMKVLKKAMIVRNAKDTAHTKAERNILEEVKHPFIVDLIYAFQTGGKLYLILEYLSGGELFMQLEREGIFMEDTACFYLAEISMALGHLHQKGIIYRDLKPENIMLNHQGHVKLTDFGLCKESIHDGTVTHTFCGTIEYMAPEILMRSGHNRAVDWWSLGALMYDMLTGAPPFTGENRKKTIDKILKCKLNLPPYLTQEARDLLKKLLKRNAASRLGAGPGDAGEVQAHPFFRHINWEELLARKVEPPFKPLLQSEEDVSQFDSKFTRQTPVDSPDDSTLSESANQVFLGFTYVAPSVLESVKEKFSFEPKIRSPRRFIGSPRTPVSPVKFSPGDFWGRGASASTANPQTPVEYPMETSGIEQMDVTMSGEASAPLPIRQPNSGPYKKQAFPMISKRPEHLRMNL

Regarding `S=C(NCc1ccc2c(c1)OCO2)N1CCN(c2ncnc3c2oc2ccccc23)CC1` [AMUVATINIB], the Kd in assay [1], in assay [2], in assay [3], in assay [4] and in assay [5] was > 30 µM (inactive) in each case.

Take `O[C@H]1CC[C@H](Nc2ncc3nc(Nc4c(F)cc(F)cc4F)n([C@H]4CCOC4)c3n2)CC1` [TANZISERTIB]: the Kd in assay [1], in assay [2], in assay [3], in assay [4] and in assay [5] was > 30 µM (inactive) each time.

On to `COc1cccc2cc(-c3nc([C@H]4CC[C@H](C(=O)O)CC4)n4ncnc(N)c34)[nH]c12` [OSI-027], for which the Kd (commonly the free concentration of one partner at which half of the binding sites on the other are occupied at equilibrium, for simple one-to-one binding) in assay [1] was 4.97 µM; in assay [2], > 30 µM (inactive); in assay [3], > 30 µM (inactive); in assay [4], > 30 µM (inactive); in assay [5], > 30 µM (inactive).

Turning to `c1cc(OCCN2CCCCC2)cc(-c2n[nH]c3ccc(-c4nc[nH]n4)cc23)c1` [CC-401], the Kd in assay [1], in assay [2], in assay [3], in assay [4] and in assay [5] was > 30 µM (inactive) in each case.

Regarding `COc1cc2ncnc(Nc3ccc(O)cc3)c2cc1OC` [WHI-P131], the Kd is > 30 µM (inactive) in assay [1]; > 30 µM (inactive) in assay [2]; > 30 µM (inactive) in assay [3]; > 30 µM (inactive) in assay [4]; 34.1 µM (active) in assay [5].

`O=C(Nc1ccc(OC(F)(F)F)cc1)c1sccc1NCc1ccnc2ccccc12` [OSI-930]: the Kd in assay [1], in assay [2], in assay [3], in assay [4] and in assay [5] was > 30 µM (inactive) each time.

On to `CC[C@@](C)(Nc1ccnc(-c2c[nH]c3ncccc23)n1)C(=O)NCC(F)(F)F` [DECERNOTINIB], for which the Kd in assay [1] is > 30 µM (inactive); in assay [2], > 30 µM (inactive); in assay [3], > 30 µM (inactive); in assay [4], 3.41 µM (active); in assay [5], > 30 µM (inactive).

As to `O=S(=O)(c1cccc2c(O)nccc12)N1CCCNCC1` [HYDROXYFASUDIL], the Kd in assay [1], in assay [2], in assay [3], in assay [4] and in assay [5] was > 30 µM (inactive) throughout.

On to `C[C@@H]1COC(Nc2ccc3ncnc(Nc4ccc(OCc5nccs5)c(Cl)c4)c3c2)=N1` [VARLITINIB], for which the Kd in assay [1], in assay [2], in assay [3], in assay [4] and in assay [5] was > 30 µM (inactive) in each case.

Consider `NC(=O)c1ccc(N(C(N)=O)c2c(F)cccc2F)nc1-c1ccc(F)cc1F` [VX-702], for which the Kd in assay [1], in assay [2], in assay [3], in assay [4] and in assay [5] was > 30 µM (inactive) in each case.

In the case of `C=CC(=O)Nc1cc(Nc2nccc(-c3cn(C)c4ccccc34)n2)c(OC)cc1N(C)CCN(C)C` [OSIMERTINIB], the Kd in assay [1] was 2.97 µM (active); in assay [2], > 30 µM (inactive); in assay [3], > 30 µM (inactive); in assay [4] it was > 30 µM (inactive); in assay [5], > 30 µM (inactive).

On to `COCCN1CCN(Cc2ccc(-c3n[nH]c4c3C(=O)c3c(NC(=O)NN5CCOCC5)cccc3-4)cc2)CC1` [RGB-286638], for which the Kd in assay [1] is 2.18 µM; in assay [2], > 30 µM (inactive); in assay [3] it was > 30 µM (inactive); in assay [4] it was > 30 µM (inactive); in assay [5], > 30 µM (inactive).

For `COc1cccc(Nc2ncnn3ccc(CN4CC[C@@H](N)[C@H](O)C4)c23)c1` [BMS-690514], the Kd in assay [1], in assay [2], in assay [3], in assay [4] and in assay [5] was > 30 µM (inactive) throughout.

For `Cn1c(=O)c(F)c(Nc2ccc(I)cc2F)c2c(=O)n(C[C@@H](O)CO)cnc21` [TAK-733], the Kd in assay [1], in assay [2], in assay [3], in assay [4] and in assay [5] was > 30 µM (inactive) each time.

`C#Cc1cccc(Nc2ncnc3cc4c(cc23)OCCOCCOCCO4)c1` [ICOTINIB]: the Kd was 4.66 µM (active) in assay [1]; > 30 µM (inactive) in assay [2]; > 30 µM (inactive) in assay [3]; > 30 µM (inactive) in assay [4]; > 30 µM (inactive) in assay [5].

With `Cn1cc(-c2[nH]c3cc(NC(=O)[C@H](N)C4CCCCC4)cc4c3c2C=NNC4=O)cn1`, the Kd in assay [1] is > 30 µM (inactive); in assay [2], > 30 µM (inactive); in assay [3] it was 2.38 µM (active); in assay [4], > 30 µM (inactive); in assay [5], 2.61 µM (active).

For the compound `FC(F)(F)c1ccc(CNc2ccc(Cc3c[nH]c4ncc(Cl)cc34)cn2)cn1` [PEXIDARTINIB], the Kd in assay [1], in assay [2], in assay [3], in assay [4] and in assay [5] was > 30 µM (inactive) in each case.

Turning to `CC(C)(O)CC(=O)NCCn1ccc2ncnc(Nc3ccc(Oc4cccc(C(F)(F)F)c4)c(Cl)c3)c21` [TAK-285], the Kd in assay [1], in assay [2], in assay [3], in assay [4] and in assay [5] was > 30 µM (inactive) in each case.

For the compound `NC[C@@](O)(c1ccc(Cl)cc1)c1ccc(-c2cn[nH]c2)cc1` [AT-13148], the Kd in assay [1], in assay [2], in assay [3], in assay [4] and in assay [5] was > 30 µM (inactive) throughout.
